The values below come from US20240366813A1, “PEPTIDE-UREA DERIVATIVE, PHARMACEUTICAL COMPOSITION CONTAINING SAME AND APPLICATION THEREOF” (Bivision Pharmaceuticals, Inc., priority 0001, published 2024).

One data set addresses PSMA protein (Homo sapiens (Human), UniProt Q04609). The data set is described as follows: In vitro binding test of compound and PSMA protein (Biacore). The settings on record: Biacore 8K, 15° C., 1:1 binding model, KD in M; for Kd: read-out: pkD (pKD=−Log KD, binding affinity to PSMA protein) (converted). The protocol:
A Biacore 8K (Cytiva) instrument was used to determine the binding affinity of disclosed compounds to the PSMA protein (Sinobiological). The PSMA protein was captured on SA chips. Before immobilizing the disclosed compounds (flow path 1 and 2, flow rate 10 μL/min), the PSMA protein was immobilized on flow path 2 by using flow buffer (10 μg/ml, flow rate 5 μL/min, injection time 600 s), and 1M NaCl was injected three times consecutively into 50 mM NaOH to condition the sensor surface. After each disclosed compounds injection, isopropanol in 1M NaCl and 50 mM NaOH was used for additional washing (flow path 1, 2, flow rate 10 μL/min, injection time 60 s).
All compounds were dissolved in 100% DMSO and diluted to 10 mM, and then diluted in test buffer (PBS, pH 7.4, 1 mM TCEP ([…]), 0.05% P20, 2% dimethyl sulfoxide) at an appropriate highest concentration. Analytes were run using the following conditions: 15° C. analysis temperature, analysis steps=all set to LMW kinetics; cycle type=single cycle (90 s contact time, 1800 s separation time, 30 ul/min flow rate, channels 1, 2); channel detection=2-1). Data were evaluated using Biacore Insight evaluation software, and data were fit to a 1:1 binding model.
Biacore results are shown in Table 12: pKD=−Log KD, where KD is the binding affinity of the compounds to PSMA protein measured by Biacore. KD is expressed by KD (M)=Kd (1/s)/Ka (1/Ms).

The next data set relates to 22rv1 xenograft tumor. As to the kind of experiment: Pharmacodynamic study in 22rv1 mouse xenograft tumor model (effect example 11). The class given is in vivo, mice. The note with it: for TGITV (relative tumor inhibition rate): Day 19; for Tumor volume, Administration in groups Day 19: mean ± standard error.
Data set [1] deals with PSMA-positive cells LNCap. The data set is described as follows: Uptake of labeled compounds by PSMA-positive cells LNCap. The settings on record: 37° C., 0.5 h. The format is cell-based. The protocol: LNCap cells (Shangcheng Beina Chuanglian Biotechnology Co., Ltd., Industrial Park, Chengguan Town, Shangcheng County, Xinyang City, Henan Province) were revived and passaged for expansion. After the cells were expanded to a sufficient amount, cells were seeded in a 24-well plate at a density of 1×10^4 cells/well. Uptake tests were performed when cells grew to 80%-90% confluence.
The above labeled compounds ^177Lu-E1, ^177Lu-E2, ^177Lu-E3, ^177Lu-E5, ^177Lu-E9, ^177Lu-E14 and ^177Lu-PSMA-617 were diluted with serum-free medium into 10000, 1000, 100, 10, 1, 0.1 and 0 nM. 1 mL of the diluted solution was added to a 24-well plate, and incubated at 37° C. for 0.5 h. The supernatant was discarded and the cells were washed 3 times with PBS. 250 μL of 1M NaOH solution was added to each well. The cells were pipetted until they were completely dissolved, and transferred to a scintillation vial. 250 μL of NaOH solution was added to each well again to wash the bottom of the well and transferred to a scintillation vial. 2 mL of scintillation fluid was added to each scintillation vial and shaken well. A liquid scintillation counter was used to detect radioactive counts in each vial.

A short description of data set [2]: In vivo metabolism test of 177Lu-labeled complex in SD rats (plasma radioactive counts). The note with it: for plasma radioactive counts: individual rat, 100 μL plasma; for plasma radioactive counts, MEAN: mean of rats. The protocol: Eighteen SD rats (Hangzhou Ziyuan Experimental Animal Technology Co., Ltd.), male, weighing 180-200 g, were randomly divided into 6 groups, 3 rats in each group. […] of the labeled precursor compound was injected into the tail vein of each mouse. 250 μL of orbital blood was collected into anticoagulant tubes at 5 min, 0.5 h, 1 h, 2 h, 4 h, 8 h and 24 h after administration. Blood was centrifuged at 3000 rpm for 10 min, and 100 μL of plasma was taken into scintillation vials. 2 mL of scintillation fluid was added to each scintillation vial and shaken well. A liquid scintillation counter was used to detect radioactive counts in each vial.

For data set [3], the system named is LNCaP PSMA-positive tumors. As to the kind of experiment: SPECT imaging in mice carrying LNCaP PSMA-positive tumors. The class given is in vivo. The note with it: 100 μCi tail vein. The protocol: 100 μCi of ^177Lu-labeled ^177Lu-E3 and ^177Lu-PSMA-617 were injected into mice carrying LNCaP PSMA-positive tumors (Jiangsu Huajing Molecular Imaging and Drug Research Institute Co., Ltd.) through the tail vein respectively. Mice were anesthetized with 2% isoflurane/98% oxygen for SPECT image contrast study.

Where [4] appears, read: 300 μCi of ^177Lu-labeled test sample.
The mark [5] stands for this setting: 600 μCi of ^177Lu-labeled test sample.
Where [6] appears, read: 5 min after tail vein injection.
Setting [7] is: 0.5 h after tail vein injection.

Where “and” joins values, the source holds several entries; their conditions need not be identical. Identical values can stand only once.

Chain of PSMA protein (Q04609 whole entry): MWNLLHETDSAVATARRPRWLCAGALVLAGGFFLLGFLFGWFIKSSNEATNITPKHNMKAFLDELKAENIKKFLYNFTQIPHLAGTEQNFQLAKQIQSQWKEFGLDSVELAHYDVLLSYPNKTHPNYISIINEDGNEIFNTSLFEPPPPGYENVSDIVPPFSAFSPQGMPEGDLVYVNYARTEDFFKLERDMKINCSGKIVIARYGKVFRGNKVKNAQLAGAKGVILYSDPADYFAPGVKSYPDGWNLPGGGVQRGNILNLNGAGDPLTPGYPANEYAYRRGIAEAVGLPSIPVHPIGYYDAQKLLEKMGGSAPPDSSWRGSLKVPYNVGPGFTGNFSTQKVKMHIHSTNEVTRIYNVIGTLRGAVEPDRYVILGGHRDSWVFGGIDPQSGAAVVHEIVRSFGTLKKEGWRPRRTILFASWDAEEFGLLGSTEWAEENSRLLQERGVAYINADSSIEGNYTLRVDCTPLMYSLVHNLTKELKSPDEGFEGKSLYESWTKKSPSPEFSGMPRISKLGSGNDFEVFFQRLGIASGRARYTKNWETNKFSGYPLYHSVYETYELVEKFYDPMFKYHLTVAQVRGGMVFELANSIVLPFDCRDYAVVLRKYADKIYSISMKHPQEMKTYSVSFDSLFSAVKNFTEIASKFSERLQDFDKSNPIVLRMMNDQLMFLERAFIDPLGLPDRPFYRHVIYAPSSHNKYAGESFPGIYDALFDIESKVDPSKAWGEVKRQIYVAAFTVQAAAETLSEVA

For `O=C(O)CC[C@H](NC(=O)NC(CCCCNC(=O)[C@H](Cc1ccc2ccccc2c1)NC(=O)C1CCC2(CC1)CN(C(=O)CN1CCN(CC(=O)O)CCN(CC(=O)O)CCN(CC(=O)O)CC1)C2)C(=O)O)C(=O)O` (stereo partly shown) [Compound E2], the equilibrium dissociation constant (Kd) at PSMA protein is 0.229 nM.
Same read-out and setting: in the case of `O=C(O)CC[C@H](NC(=O)N[C@@H](CCCCNC(=O)[C@H](Cc1ccc2ccccc2c1)NC(=O)c1ccc2c(c1)CN(C(=O)CN1CCN(CC(=O)O)CCN(CC(=O)O)CCN(CC(=O)O)CC1)CC2)C(=O)O)C(=O)O` [Compound E4] it was 0.269 nM.
With `O=C(O)CC[C@H](NC(=O)N[C@@H](CCCCNC(=O)[C@H](Cc1ccc2ccccc2c1)NC(=O)C1C2CN(C(=O)CN3CCN(CC(=O)O)CCN(CC(=O)O)CCN(CC(=O)O)CC3)CC21)C(=O)O)C(=O)O` (stereo partly shown) [Compound E8], the “pkD (pKD=−Log KD, binding affinity to PSMA protein)” value on PSMA protein is on record as 9.49.
On to `O=C(O)CC[C@H](NC(=O)NC(CCCCNC(=O)[C@H](Cc1ccc2ccccc2c1)NC(=O)C1CCC2(CC1)CCN(C(=O)CN1CCN(CC(=O)O)CCN(CC(=O)O)CCN(CC(=O)O)CC1)CC2)C(=O)O)C(=O)O` (stereo partly shown) [Compound E9], for which, at PSMA protein, the Kd is 0.282 nM.
Turning to `O=C(O)CC[C@H](NC(=O)N[C@@H](CCCCNC(=O)[C@H](Cc1ccc2ccccc2c1)NC(=O)c1ccc2cc(NC(=O)CN3CCN(CC(=O)O)CCN(CC(=O)O)CCN(CC(=O)O)CC3)ccc2c1)C(=O)O)C(=O)O` [Compound E21], the “pkD (pKD=−Log KD, binding affinity to PSMA protein)” value at PSMA protein was 9.82.
Still for that read-out and setting: in the case of `O=C(O)CC[C@H](NC(=O)N[C@@H](CCCCNC(=O)[C@H](Cc1ccc2ccccc2c1)NC(=O)C1CC2(C1)CN(C(=O)CN1CCN(CC(=O)O)CCN(CC(=O)O)CCN(CC(=O)O)CC1)C2)C(=O)O)C(=O)O` [Compound E22] it was 10.00; in that of `O=C(O)CC[C@H](NC(=O)N[C@@H](CCCCNC(=O)[C@H](Cc1ccc2ccccc2c1)NC(=O)c1cnc2cc(NC(=O)CN3CCN(CC(=O)O)CCN(CC(=O)O)CCN(CC(=O)O)CC3)ccc2c1)C(=O)O)C(=O)O` [Compound E25], 10.15.
In the case of `O=C(O)CC[C@H](NC(=O)N[C@@H](CCCCNC(=O)[C@H](Cc1ccc2ccccc2c1)NC(=O)[C@H]1CC[C@H](CNC(=O)CN2CCN(CC(=O)O)CCN(CC(=O)O)CCN(CC(=O)O)CC2)CC1)C(=O)O)C(=O)O` [PSMA-617, reference compound], the dissociation constant Kd on PSMA protein is 0.00204 nM. For the same compound, in the data set with 22rv1 xenograft tumor (setting [4]), the “TGITV (relative tumor inhibition rate)” value is 15.49% and the “Tumor volume, Administration in groups Day 19” value is reported as 1,480.09 ± 446.83 mm^3. For the same compound, in the data set with 22rv1 xenograft tumor (setting [5]), the “TGITV (relative tumor inhibition rate)” value is 21.18% and the “Tumor volume, Administration in groups Day 19” value is 1,389.81 ± 598.96 mm^3.
As for `O=C([O-])CN1CCN(CC(=O)[O-])CCN(CC(=O)NCC2CCC(C(=O)N[C@@H](Cc3ccc4ccccc4c3)C(=O)NCCCC[C@H](NC(=O)N[C@@H](CCC(=O)O)C(=O)O)C(=O)O)CC2)CCN(CC(=O)[O-])CC1.[177Lu+3]` (stereo partly shown) [^177Lu-PSMA-617, reference compound], the “uptake by LNCap cells” value in data set [1] (0.1 nM) is reported as 49 cpm; in data set [1] (1 nM) it was 67 cpm; in data set [1] (10 nM), 225 cpm; in data set [1] (100 nM), 389 cpm; in data set [1] (1000 nM), 599 cpm; in data set [1] (10000 nM), 1625 cpm. The plasma radioactive counts is 24449 cpm and 23276 cpm and 22010 cpm in data set [2] (setting [6]); 9783 cpm and 13738 cpm and 14589 cpm in data set [2] (setting [7]); 3865 cpm and 6988 cpm and 7736 cpm in data set [2] (1 h after tail vein injection); 679 cpm and 1346 cpm and 1544 cpm in data set [2] (2 h after tail vein injection); 207 cpm and 219 cpm and 225 cpm in data set [2] (4 h after tail vein injection); 188 cpm and 187 cpm and 170 cpm in data set [2] (8 h after tail vein injection). The plasma radioactive counts in data set [2] (24 h after tail vein injection) was 173 cpm and 176 cpm and 178 cpm. The “plasma radioactive counts, MEAN” value is given as 23245 cpm in data set [2] (setting [6]); 12703 cpm in data set [2] (setting [7]); 6196 cpm in data set [2] (1 h after tail vein injection); 1190 cpm in data set [2] (2 h after tail vein injection); 217 cpm in data set [2] (4 h after tail vein injection); 182 cpm in data set [2] (8 h after tail vein injection). In addition, the “plasma radioactive counts, MEAN” value in data set [2] (24 h after tail vein injection) was found to be 176 cpm. Also, the “Heart, Averaged” value is 1.59 % ID/cc in data set [3] (1 h); 1.47 % ID/cc in data set [3] (4 h); 0.53 % ID/cc in data set [3] (8 h); 1.45 % ID/cc in data set [3] (1 d); 0.46 % ID/cc in data set [3] (3 d). Also, the “Kidney, Averaged” value in data set [3] (1 h) was found to be 58.17 % ID/cc; in data set [3] (4 h), 8.37 % ID/cc; in data set [3] (8 h), 4.35 % ID/cc; in data set [3] (1 d) it was 1.16 % ID/cc; in data set [3] (3 d), 1.55 % ID/cc. Also, the “Liver, Averaged” value in data set [3] (1 h) came out at 1.61 % ID/cc; in data set [3] (4 h) it was 1.27 % ID/cc; in data set [3] (8 h) it was 1.04 % ID/cc; in data set [3] (1 d) it was 1.43 % ID/cc; in data set [3] (3 d), 0.96 % ID/cc. Besides, the “Lung, Averaged” value in data set [3] (1 h) was 3.30 % ID/cc; in data set [3] (4 h) it was 1.54 % ID/cc; in data set [3] (8 h) it was 0.86 % ID/cc; in data set [3] (1 d), 0.85 % ID/cc; in data set [3] (3 d), 3.74 % ID/cc. The “Tumor, Averaged” value in data set [3] (1 h) amounted to 19.42 % ID/cc; in data set [3] (4 h), 10.68 % ID/cc; in data set [3] (8 h), 9.4 % ID/cc; in data set [3] (1 d) it was 2.19 % ID/cc; in data set [3] (3 d), 4.76 % ID/cc. For the same compound, in the data set on 22rv1 xenograft tumor (over the two dose groups), the “tumor growth inhibition rate” value was 15-21%.
